From US7666670B2, “Animal model for the fast identification of pharmaceutical active compounds in vivo” (Janssen Pharmaceutica N.V., priority 2003, dated 2010)
“And” between values parts separate entries of the source, which are not always exact repeats. Equal entries are not always repeated. *1 amine or outer side, *2 acyl side, *3 side chain or, on linkers, in order; H or OH if unused. Where a SMILES comes first, the peptide text is derived from it. Bridges are numbered along the chain shown (N, C = ends). Roman numbers before positions name the chains, in order. [ ]: non-standard residue; d: D form. Actinocin(9to1) = Cc1c2oc3c(C)ccc(C(=O)[*:1])c3nc-2c(C(=O)[*:2])c(N)c1=O; NMeV = CN[C@H](C(=O)O)C(C)C; Sar = CNCC(=O)O

How the values were obtained:
[1] = test system: p21 1300 bp promoter fragment; assay: Induction of p21 1300 bp promoter fragment (ZsGreen fluorescence) in pGL3-basic-ZsGreen-1300 transfected A2780 clones; type: cell-based, human; conditions: for Activation of the 1300 bp fragment of the p21 promoter by DNA damaging agents: dose response, clones 1 and 5 (FIG. 1); for Activation of the 1300 bp fragment of the p21 promoter by DNA damaging agents / Fold induction (fluorescence after induction divided by fluorescence of DMSO treated cells): 24 h; for Fold induction (fluorescence after induction divided by fluorescence of DMSO treated cells): Fluoroskan; for Fold induction: first screen of 80 clones, the two clones measurable with Fluoroskan
Procedure: A2780 cells were plated into a 6-well plate at a density of 2×10^5 cells, incubated for 24 hours, and transfected with 2 ug of pGL3-basic-ZsGreen-1300 and 0.2 ug of pSV2neo vector by using Lipofectamine 2000 (Invitrogen, Brussels, Belgium) as described by manufacturer. The transfected cells were selected for 10 days with G418 (Gibco-BRL, Gaithersburg, Md.) and single cell suspensions were grown. After three weeks, 80 single clones were obtained.
The A2780 transfected pool and the selected 80 clones were expanded and seeded at 10000 cells per well into 96-well plates. 24 hours after seeding, the cells were treated for an additional 24 hours with targeted compounds (affecting sp1 sites in the proximal p21 promoter region) or DNA damaging agents (affecting p53 responsive elements). Subsequently, cells were fixed with 4% PFA for 30′ and counterstained with Hoechst dye. The p21 promoter activation leading to ZsGreen production and thus fluorescence, was monitored by the Ascent Fluoroskan (Thermo Labsystems, Brussels, Belgium) and by fluorescence microscope (Zeiss).

[2] = test system: tumor; conditions: PK/PD studies; cited from earlier work
[3] = test system: pGL3-basic-ZsGreen-1300 transfected A2780 xenograft; assay: In vivo xenograft fluorescence, Automated Whole Body Imaging System; parameters: species or system nude mice
Procedure: The selected clone was injected subcutaneous (10^7 cells/200 μl) into the flank of nude mice and a calliper measurable tumor was obtained after 12 days. From day 12 on, animals were orally dosed daily during 6 days with solvent, 20 mpk Mitsui (a.k.a. MS-275—Shering—Registry Number 209783-80-2) or 40 mpk compound X (10, 10 and 4 animals respectively). Tumors were evaluated for fluorescence by the in-house developed Automated Whole Body Imaging System (Fluorescent stereomicroscope type Olympus® SZX12 equipped with a GFP filter and coupled to a CCD camera type JAI® CV-M90 controlled by a software package based on the IMAQ Vision Software from National Instruments®).

[4] = test system: p53RE_tk in HCT116 cells; assay: Induction of p53RE_tk activity (ZsGreen fluorescence) in transfected HCT116 clones; type: cell-based; conditions: 24 h
Procedure: (§1) A2780 cells and HCT116 cells were plated into a 6-well plate at a density of 4×10^5 cells, incubated for 24 hours, and transfected with 2 ug of p53RE_TK/pGL3-basic-ZsGreen and 0.2 ug of pMC1-neo-Poly A vector by using Lipofectamine and Plus Reagent (Invitrogen, Brussels, Belgium) as described by manufacturer. The transfected cells were selected for 16 days with G418 (Gibco-BRL, Gaithersburg, Md.) and single cell suspensions were grown. After three weeks, 60 single clones were obtained from the transfected HCT116 cells and 40 single clones were obtained from the transfected A2780 cells.
(§2) The A2780 and the HCT116 transfected pool and the selected clones were expanded and seeded at 20000 cells per well into 96-well plates. 24 hours after seeding, the cells were treated for an additional 24 hours with DNA damaging agents (affecting p53 responsive elements). The p53RE_tk activation leading to ZsGreen production and thus fluorescence, was monitored by the Ascent Fluoroskan (Thermo Labsystems, Brussels, Belgium) and by fluorescence microscope (Zeiss).

[5] = test system: p53RE_tk in A2780 cells; assay: Induction of p53RE_tk activity (ZsGreen fluorescence) in transfected A2780 clones; type: cell-based, human; conditions: 24 h, Fluoroskan; for Fold induction (fluorescence after induction divided by fluorescence of DMSO treated cells): A2780 clone 36, 10 ng/ml
Procedure: as §1, §2

[6] = 20 mpk orally daily for 6 days from day 12, clone 1 and 5 xenograft, nude mice

Molecule: CC[C@@]1(O)C(=O)OCc2c1cc1n(c2=O)Cc2cc3ccccc3nc2-1 [Camptothecin]
- Activation of the 1300 bp fragment of the p21 promoter by DNA damaging agents [1]: not able to activate
- Activation of the 1300 bp fragment of the p21 promoter by DNA damaging agents ([1]; listed as Campthotecin): non-responsivness

Molecule: COc1cccc2c1C(=O)c1c(O)c3c(c(O)c1C2=O)C[C@@](O)(C(=O)CO)C[C@@H]3O[C@H]1C[C@H](N)[C@H](O)[C@H](C)O1 [Doxorubicin]
- Activation of the 1300 bp fragment of the p21 promoter by DNA damaging agents [1]: not able to activate
- Activation of the 1300 bp fragment of the p21 promoter by DNA damaging agents ([1]; listed as doxorubicin): non-responsivness

Molecule: Nc1ccccc1NC(=O)c1ccc(CNC(=O)OCc2cccnc2)cc1 [Mitsui]
- Compound reaches the tumor [2]: can reach the tumor
- Concentration reached in the tumor [2]: high enough to stop the tumor from growing
- Time after administration of the first dose at which induction of ZsGreen was very clear [3, 6]: 3 days
- Time after starting the treatment at which ZsGreen induction reached a plateau [3, 6]: 5 days
- Basal ZsGreen expression and induction, detection by Automated Whole Body Imaging System ([3]; 20 mpk, clone 2 and 3 xenograft, nude mice): too low
- Induction of fluorescence in the xenograft ([3]; after 4 days of treatment): induces fluorescence
- Fold induction (fluorescence after induction divided by fluorescence of DMSO treated cells) ([1]; clone 1, 10^−6M): 2 fold and 1.8 fold
- Fold induction ([1]; 10^−6, 24 h): 1.2-1.5 fold
- ZsGreen production in pGL3-basic-ZsGreen-1300 transfected A2780 cells in vitro [1]: induce ZsGreen production

Molecule: O=C(CCCCCCC(=O)Nc1ccccc1)NO [SAHA, suberoylanilide hydroxamic acid]
- ZsGreen production in pGL3-basic-ZsGreen-1300 transfected A2780 cells in vitro [1]: induce ZsGreen production

Molecule: CC(/C=C/C(=O)NO)=C\[C@@H](C)C(=O)c1ccc(N(C)C)cc1 [TSA, trichostatin A]
- Fold induction (fluorescence after induction divided by fluorescence of DMSO treated cells) ([1]; clone 1, 10^−7M): 5 fold
- Fold induction ([1]; 10^−7, 24 h): 5 fold
- ZsGreen production in pGL3-basic-ZsGreen-1300 transfected A2780 cells in vitro [1]: induce ZsGreen production

Molecule: Cc1c2oc3c(C)ccc(C(=O)N[C@@H]4C(=O)N[C@H](C(C)C)C(=O)N5CCC[C@H]5C(=O)N(C)CC(=O)N(C)[C@@H](C(C)C)C(=O)O[C@@H]4C)c3nc-2c(C(=O)N[C@@H]2C(=O)N[C@H](C(C)C)C(=O)N3CCC[C@H]3C(=O)N(C)CC(=O)N(C)[C@@H](C(C)C)C(=O)O[C@@H]2C)c(N)c1=O [actinomycin D] (I: T[dV]P[Sar][NMeV] / II: T[dV]P[Sar][NMeV]; ester I:1-I:C, II:1-II:C; linker I:N-II:N via Actinocin(9to1))
- Induction of fluorescence ([4]; HCT116 clones 5 and 36, 10 ng/ml): strong induction factor
- Induction of fluorescence ([4]; the 6 responding HCT116 clones, 10 ng/ml, Fluoroskan): at least a two fold induction
- Fold induction (fluorescence after induction divided by fluorescence of DMSO treated cells) [5]: 2 fold
- Fold induction (fluorescence after induction divided by fluorescence of DMSO treated cells) ([5]; listed as actinomycinD): strong induction factor
- Induction of fluorescence ([5]; the 2 responding A2780 clones, 10 ng/ml): at least a two fold induction

Molecule: Bleomycin
- Activation of the 1300 bp fragment of the p21 promoter by DNA damaging agents [1]: not able to activate
- Activation of the 1300 bp fragment of the p21 promoter by DNA damaging agents ([1]; listed as bleomycin): non-responsivness
